Reference: patent US4221781A, “Synergistic penicillin-cephalosporin compositions and methods” (priority 1971, dated 1980)
Read-outs that look alike come from different tables or passages of the source.

What was measured:
Format in all cases: cell-based
[1] = test system: Proteus (Proteus Mirabilis I 190); experiment: Example 11: in vitro M.I.C. of II, cephalosporins and 1:1 combinations
Description: (§1) Tryptose phosphate broth, containing the appropriate concentrations of the compounds or of the combination of them, was inoculated with 0.5×10^4 -5×10^4 organisms of the various microorganisms tested and incubated overnight at 37° C. Minimum inhibitory concentrations (M.I.C.) were taken as the concentrations of the compounds or of the combination at which no visible growth occurred.
Using the same technique as described in Example 1 the in vitro activity of 6-[(hexahydro-1H-azepin-1-yl)methyleneamino]penicillanic acid (II), of various cephalosporins and of 1:1 combinations of II with these cephalosporins was determined against a clinically isolated strain of Proteus (Proteus Mirabilis I 190).

[2] = test system: Klebsiella-Enterobacter (strain 4/71); experiment: Example 10: in vitro M.I.C. of II, cephalosporins and 1:1 combinations
Description: as §1
Using the same technique as described in Example 1 the in vitro activity of 6-[(hexahydro-1H-azepin-1-yl)methyleneamino]penicillanic acid (II), of various cephalosporins previously mentioned in this specification, and of 1:1 combinations of II with these cephalosporins was determined against a clinically isolated strain of Klebsiella-Enterobacter (strain 4/71)

[3] = test system: Klebsiella-Enterobacter; experiment: Example 9: in vitro MIC, serial dilution test, Klebsiella-Enterobacter; conditions: read-out: MIC
Description: as §1
(§2) Using the technique described in Example 1 the in vitro effect of combinations of 6-(D-α-aminophenylacetamido)-penicillanic acid (I) and 6-[(N,N-diethylformamidino)-N'-amino]penicillanic acid (VII) in the ratios 1:1, 1:2 and 2:1 against clinically isolated strains of Coliforma, Klebsiella-Enterobacter and Proteus was determined in serial dilution tests.

[4] = test system: Coliforma; experiment: Example 9: in vitro MIC, serial dilution test, Coliforma
Description: as §1, §2

[5] = test system: Proteus; experiment: Example 9: in vitro MIC, serial dilution test, Proteus; conditions: Proteus strain 9; read-out: MIC
Description: as §1, §2

[6] = test system: clinically isolated coliform bacterium; experiment: Example 5: in vitro M.I.C. of IV, various penicillins and 1:1 combinations
Description: as §1
Using the same technique as described in Example 1 the in vitro activity of 6[(piperidyl-1)-methyleneamino]-penicillianic acid (IV), of various penicillins, and of 1:1 combinations of IV with these penicillins, was determined against a clinically isolated coliform bacterium.

CC(=O)OCC1=C(C(=O)O)N2C(=O)[C@@H](NC(=O)Cc3cccs3)[C@H]2SC1 [VI, cephalotin]
MIC [1]: 3.12 µg/mL
MIC [2]: 50 µg/mL

CCN(C=NC1C(=O)N2C1SC(C)(C)C2C(=O)O)CC (stereo not shown) [VII, 6-[(N,N-diethylformamidino)-N'-amino]penicillanic acid]
MIC ([3]; Klebsiella-Enterobacter strain 1): > 100 µg/mL
MIC ([3]; Klebsiella-Enterobacter strain 5): > 100 µg/mL
MIC ([3]; Klebsiella-Enterobacter strain 7): > 100 µg/mL
MIC ([3]; Klebsiella-Enterobacter strain 8): 12.5 µg/mL
MIC ([4]; Coliforma strain 1): 3.12 µg/mL
MIC ([4]; Coliforma strain 4): 3.12 µg/mL
MIC ([4]; Coliforma strain 7): 6.25 µg/mL
MIC ([4]; Coliforma strain 16): 6.25 µg/mL
MIC [5]: 100 µg/mL

CC1(C)S[C@@H]2[C@H](NC(=O)Cc3ccccc3)C(=O)N2[C@H]1C(=O)O [benzylpenicillin]
MIC [6]: 25 µg/mL

CC1(C)S[C@@H]2[C@H](NC(=O)C(C(=O)O)c3ccccc3)C(=O)N2[C@H]1C(=O)O (stereo partly drawn) [α-carboxybenzylpenicillin]
MIC [6]: 12.5 µg/mL
